Experimental data from patent US10487054B2, “Therapeutic compounds” (REGENTS OF THE UNIVERSITY OF MINNESOTA, priority 2017, dated 2019).

Biological target: T1, MEK1 (Homo sapiens, UniProt Q02750)
T1 construct: purchased Millipore (Billerica, Mass.)
Assay: In vitro kinase assay ([γ-32P] ATP, autoradiography)
Format: biochemical
Settings: 0.5, 1, 3, 5 or 10 μM
Method: Active TOPK (200 ng) was incubated with different concentrations of ATP (0, 10 or 100 μM) and then mixed with compound 1-conjugated Sepharose 4B beads or Sepharose 4B beads. Proteins were pulled down and analyzed by Western blot. Data are representative of 3 independent experiments that gave similar results. FIGS. 2C and 2D show compound 1 binds to either TOPK (2C) or MEK1/2 (2D) ex vivo. Lysates from HaCaT cells (500 μg) were incubated with compound 1-conjugated Sepharose 4B beads or Sepharose 4B beads alone and the pulled-down proteins were analyzed by Western blot. Data are representative of 3 independent experiments that gave similar results. FIGS. 2E and 2F show compound 1 inhibits TOPK kinase (2E) activity but not MEK1 kinase (2F) activity in vitro. Active TOPK (200 ng) was mixed with compound 1 (0, 0.5, 1, 3, or 5 μM) or HI-032 (TOPK inhibitor, 10 μM) and then incubated with a [γ-^32P] ATP mixture. Similarly, MEK1 (200 ng) was mixed with compound 1 (0, 0.5, 1, 3, 5, or 10 μM) or PD098059 (MEK1 inhibitor, 5 μM) and then incubated with a [γ-^32P] ATP mixture. For 2E and 2F, the results are visualized by autoradiography and Coomassie blue staining serves as a loading control. […]
The in vitro kinase assay was conducted according to the instructions provided by Millipore (Billerica, Mass.). […] The relative amounts of incorporated radioactivity were assessed by autoradiography.

T1 sequence (Q02750 whole entry): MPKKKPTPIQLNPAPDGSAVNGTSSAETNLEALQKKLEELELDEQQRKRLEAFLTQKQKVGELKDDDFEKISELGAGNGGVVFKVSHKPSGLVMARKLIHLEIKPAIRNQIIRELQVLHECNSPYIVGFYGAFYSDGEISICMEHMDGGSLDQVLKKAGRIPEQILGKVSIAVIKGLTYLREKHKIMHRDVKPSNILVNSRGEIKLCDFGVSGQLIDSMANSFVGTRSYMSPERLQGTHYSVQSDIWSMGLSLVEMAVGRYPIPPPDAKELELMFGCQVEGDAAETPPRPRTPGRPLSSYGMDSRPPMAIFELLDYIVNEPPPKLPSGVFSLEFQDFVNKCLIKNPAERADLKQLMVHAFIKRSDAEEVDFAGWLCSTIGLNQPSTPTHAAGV

- MEK1 kinase activity: but not MEK1 activity
SMILES: O=C1Nc2ccc(C34CC5CC(CC(C5)C3)C4)cc2C1=NO [compound 1, 5-(adamantan-1-yl)-3-(hydroxyimino)indolin-2-one]
